Reference: ChEMBL document CHEMBL1137844, “Design, synthesis and structure-activity relationship of novel RXR-selective modulators” (Bioorg Med Chem Lett, 2004)

Legend:
[1] = molecular target: T1, Retinoic acid receptor RXR-alpha (Homo sapiens, UniProt P19793); assay: Antagonist activity for Retinoic X receptor alpha in CV1 cells; type: functional, cell-based, CV-1
T1 sequence (P19793 whole entry): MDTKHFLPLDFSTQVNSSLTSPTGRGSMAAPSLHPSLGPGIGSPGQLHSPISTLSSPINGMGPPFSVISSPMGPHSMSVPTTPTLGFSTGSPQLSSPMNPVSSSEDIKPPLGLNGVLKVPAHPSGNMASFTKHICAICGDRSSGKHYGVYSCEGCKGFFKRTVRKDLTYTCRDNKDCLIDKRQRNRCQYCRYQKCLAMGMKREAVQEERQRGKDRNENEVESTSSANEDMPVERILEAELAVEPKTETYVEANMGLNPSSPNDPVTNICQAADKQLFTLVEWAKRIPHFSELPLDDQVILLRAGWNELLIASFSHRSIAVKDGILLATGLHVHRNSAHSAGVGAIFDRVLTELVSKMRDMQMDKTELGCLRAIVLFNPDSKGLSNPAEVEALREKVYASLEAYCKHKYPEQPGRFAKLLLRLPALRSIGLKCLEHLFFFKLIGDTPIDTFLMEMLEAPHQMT

[2] = molecular target: T2, Retinoic acid receptor RXR-gamma (Homo sapiens, UniProt P48443); assay: Displacement of [3H]9-cis-RA from retinoic X receptor gamma
T2 sequence (P48443 whole entry): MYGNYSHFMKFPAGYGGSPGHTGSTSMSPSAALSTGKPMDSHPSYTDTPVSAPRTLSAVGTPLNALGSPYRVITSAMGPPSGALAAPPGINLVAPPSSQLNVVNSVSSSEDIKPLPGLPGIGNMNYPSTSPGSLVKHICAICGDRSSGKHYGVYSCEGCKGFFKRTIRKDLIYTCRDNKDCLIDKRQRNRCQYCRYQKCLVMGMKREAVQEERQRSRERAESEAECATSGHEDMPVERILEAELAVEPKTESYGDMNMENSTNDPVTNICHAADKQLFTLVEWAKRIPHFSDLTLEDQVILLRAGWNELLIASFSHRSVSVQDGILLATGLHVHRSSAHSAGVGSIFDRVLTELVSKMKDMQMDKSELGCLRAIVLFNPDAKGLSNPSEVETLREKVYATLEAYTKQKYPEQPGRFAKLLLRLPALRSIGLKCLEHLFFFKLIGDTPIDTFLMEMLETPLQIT

[3] = molecular target: T3, Retinoic acid receptor alpha (Homo sapiens, UniProt P10276); assay: Binding affinity against retinoic acid receptor alpha by [3H]ATRA displacement.
T3 sequence (P10276 whole entry): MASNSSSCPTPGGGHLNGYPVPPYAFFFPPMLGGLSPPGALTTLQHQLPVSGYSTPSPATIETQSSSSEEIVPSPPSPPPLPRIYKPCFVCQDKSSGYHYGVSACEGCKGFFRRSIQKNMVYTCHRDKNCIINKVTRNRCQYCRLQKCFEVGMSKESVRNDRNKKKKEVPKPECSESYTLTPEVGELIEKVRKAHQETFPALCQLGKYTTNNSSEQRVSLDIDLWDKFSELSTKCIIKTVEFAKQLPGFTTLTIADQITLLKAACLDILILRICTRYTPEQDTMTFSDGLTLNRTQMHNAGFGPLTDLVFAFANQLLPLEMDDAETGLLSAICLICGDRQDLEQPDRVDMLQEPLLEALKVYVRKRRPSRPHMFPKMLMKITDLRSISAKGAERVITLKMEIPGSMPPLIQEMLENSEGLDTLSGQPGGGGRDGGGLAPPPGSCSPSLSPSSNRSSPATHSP

[4] = molecular target: T4, Retinoic acid receptor RXR-beta (Homo sapiens, UniProt P28702); assay: Displacement of [3H]9-cis-RA from Retinoic X receptor beta
T4 sequence (P28702 whole entry): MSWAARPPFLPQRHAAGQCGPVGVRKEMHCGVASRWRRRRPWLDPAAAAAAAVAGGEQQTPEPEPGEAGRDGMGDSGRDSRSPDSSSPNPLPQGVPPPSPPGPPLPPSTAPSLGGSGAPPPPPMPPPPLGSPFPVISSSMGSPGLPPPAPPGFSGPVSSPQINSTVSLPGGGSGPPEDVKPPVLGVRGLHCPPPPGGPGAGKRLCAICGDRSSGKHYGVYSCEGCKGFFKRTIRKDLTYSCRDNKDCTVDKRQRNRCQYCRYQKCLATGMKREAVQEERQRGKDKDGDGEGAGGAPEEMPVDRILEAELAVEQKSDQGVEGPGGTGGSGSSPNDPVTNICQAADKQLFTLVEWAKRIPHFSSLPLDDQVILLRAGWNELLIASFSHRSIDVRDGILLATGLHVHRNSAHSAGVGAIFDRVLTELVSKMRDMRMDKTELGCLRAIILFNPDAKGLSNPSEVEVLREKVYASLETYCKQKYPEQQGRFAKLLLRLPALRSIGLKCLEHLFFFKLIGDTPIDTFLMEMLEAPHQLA

[5] = molecular target: T1, Retinoic acid receptor RXR-alpha; assay: Binding affinity against Retinoic acid receptor RXR-alpha by [3H]9-cis-RA displacement.
[6] = molecular target: T1, Retinoic acid receptor RXR-alpha; assay: Transcriptional activation in CV-1 cells expressing Retinoid X receptor alpha; type: cell-based

| IC50 [1] [nM] | Ki [2] [nM] | Ki [3] [nM] | Ki [4] [nM] | Ki [5] [nM] | EC50 [6] [nM] | Structure (SMILES) |
| --- | --- | --- | --- | --- | --- | --- |
| 16 | 20 | 6910 | 15 |  |  | CCCOc1c(-c2cccc3sc(/C(C)=C/C(=O)O)cc23)cc(C(C)C)cc1C(C)C |
| 22 | 49 | > 10000 | 4 | 101 |  | C/C(=C(/F)C(=O)O)c1cc2cccc(-c3cc(C(C)C)cc(C(C)C)c3OCC(F)F)c2o1 |
|  | 54 | 1790 | 33 | 7 | 39 | C/C(=C\C(=O)O)c1cc2c(-c3cc(C(C)(C)C)cc(C(C)(C)C)c3C)cccc2s1 |
|  | 12 | > 10000 | 11 | 6 | 20 | CCOc1c(-c2cccc3sc(/C(C)=C/C(=O)O)cc23)cc(C(C)C)cc1C(C)C |
| 8 | 21 | 7280 | 10 | 3 |  | C/C(=C\C(=O)O)c1cc2c(-c3cc(C(C)(C)C)cc(C(C)(C)C)c3OCCCF)cccc2s1 |
|  |  | > 10000 |  |  | 74 | CCOc1c(-c2cccc3cc(/C(C)=C/C(=O)O)oc23)cc(C(C)C)cc1C(C)C |
| 128 |  | 8500 |  | 44 |  | CCCOc1c(-c2cccc3cc(/C(C)=C/C(=O)O)oc23)cc(C(C)C)cc1C(C)C |
| 194 |  | > 10000 |  | 47 |  | C/C(=C\C(=O)O)c1cc2cccc(-c3cc(C(C)C)cc(C(C)C)c3OCCCF)c2o1 |
|  |  | 6020 |  | 271 | 390 | CCOc1c(-c2cccc3cc(/C(C)=C/C(=O)O)sc23)cc(C(C)C)cc1C(C)C |
| 83 | 28 | > 10000 | 12 | 5 |  | CCCCCCCOc1c(-c2cccc3sc(/C(C)=C/C(=O)O)cc23)cc(C(C)(C)C)cc1C(C)(C)C |
| 300 | 500 | > 10000 | 261 | 161 |  | C/C(=C\C(=O)O)c1cc2cccc(-c3cc(C(C)C)cc(C(C)C)c3OCC(F)F)c2o1 |
| 24 | 20 | 8360 | 55 |  |  | C/C(=C\C(=O)O)c1cc2c(-c3cc(C(C)(C)C)cc(C(C)(C)C)c3OCC(F)F)cccc2s1 |
| 11 | 28 | > 10000 | 64.5 | 16 |  | CCCCOc1c(-c2cccc3cc(/C(C)=C(\F)C(=O)O)oc23)cc(C(C)C)cc1C(C)C |
|  | 39 | > 1000 | 18 |  |  | C/C(=C/C=C/C(C)=C/C(=O)O)c1cc(C(C)(C)C)cc(C(C)(C)C)c1OCC(F)F |
| 14 | 20 | > 10000 | 10 | 3 |  | C/C(=C\C(=O)O)c1cc2c(-c3cc(C(C)(C)C)cc(C(C)(C)C)c3OCC(F)(F)F)cccc2s1 |
| 347 | 334 |  | 142 | 198 |  | C/C(=C\C(=O)O)c1cc2cccc(-c3cc(C(C)C)cc(C(C)C)c3OCC(F)(F)F)c2o1 |
| 16 | 37 | > 10000 | 12 | 7 |  | C/C(=C\C(=O)O)c1cc2c(-c3cc(C(C)(C)C)cc(C(C)(C)C)c3OCCC(F)F)cccc2s1 |
|  |  |  | 7.5 |  |  | Cc1cc2c(cc1C1(c3ccc(C(=O)O)cn3)CC1)C(C)(C)CCC2(C)C |
